# Article PMC5327911 (Clinical Pharmacology : Advances and Applications, 2017)
# Like-named read-outs stand apart in the source and are kept apart here.
# Experiments:
# Safety [1] = assay type: in vivo, human
# [2] = assay type: in vivo, human
# Safety [3] = assay type: in vivo, human; remark: listed apart in the source
# CYP system = details: cited from earlier work
# [4] = cited from earlier work
# [5] = system: CYP3A4 or other CYP isoenzymes; details: cited from earlier work
# [6] = cited from earlier work; remark: listed apart in the source
# [7] = apixaban 10 mg + atenolol 100 mg vs apixaban 10 mg
compound,measurement,setting,value
"CC(C)NCC(O)COc1ccc(CC(N)=O)cc1 (centres unmarked) [Atenolol, atenolol]",Tolerability of coadministration with apixaban,"Safety [1]; healthy subjects, atenolol 100 mg + apixaban 10 mg",generally well tolerated
"C[C@H]1O[C@@H](O[C@H]2[C@@H](O)C[C@H](O[C@H]3[C@@H](O)C[C@H](O[C@H]4CC[C@@]5(C)[C@H](CC[C@@H]6[C@@H]5C[C@@H](O)[C@]5(C)[C@@H](C7=CC(=O)OC7)CC[C@]65O)C4)O[C@@H]3C)O[C@@H]2C)C[C@H](O)[C@@H]1O [Digoxin, digoxin]",Tmax,"[2]; digoxin, Treatment B, digoxin 0.25 mg + apixaban 20 mg, day 20, median (min, max)","1.00 (1.0, 2.0) h"
same,AUC,"[2]; human, serum, oral, 0.25 mg",16.8 ng·h/mL
same,Cmax,"[2]; human, serum, oral, 0.25 mg",1.68 ng/mL
same,Tolerability of coadministration with apixaban,"Safety [3]; healthy subjects, digoxin 0.25 mg + apixaban 20 mg",generally well tolerated
same,induction or inhibition of the CYP system,CYP system,does not appear to induce or inhibit
COc1ccc(-n2nc(C(N)=O)c3c2C(=O)N(c2ccc(N4CCCCC4=O)cc2)CC3)cc1 [Apixaban],Number of AEs,"Safety [1]; apixaban 10 mg alone, none bleeding-related",five
same,"Deaths, serious AEs, major bleeding-related AEs","Safety [1]; single doses of apixaban 10 mg, atenolol 100 mg, or both","No deaths, serious AEs, or major bleeding-related AEs"
same,mean elimination half-life (t1/2),[4]; apixaban in healthy subjects,~ 12 hours
same,lower apixaban AUCinf in subjects ≥120 kg,[4]; effect of body weight,23%
same,lower apixaban Cmax in subjects ≥120 kg,[4]; effect of body weight,31%
same,inhibition or induction of CYP3A4 or other CYP isoenzymes,[5],does not inhibit or induce
same,Decrease in apixaban AUC0–t when coadministered with atenolol,[7],15%
same,Decrease in apixaban AUCinf when coadministered with atenolol,[7],15%
same,Decrease in apixaban Cmax when coadministered with atenolol,[7],18%
same,Pharmacokinetic interaction between apixaban and atenolol,"apixaban 10 mg, atenolol 100 mg, single doses",no clinically relevant interaction
same,AUCinf,"apixaban, Treatment C, apixaban 10 mg + atenolol 100 mg, geometric mean (CV %), n=14",1878 (33) ng·h/mL
same,AUC(0-inf),"human, plasma, oral, 10 mg",2160 ng·h/mL
same,AUC(0-t),"human, plasma, oral, 10 mg",2100 ng·h/mL
same,Cmax,"human, plasma, oral, 10 mg",216 ng/mL
same,Tmax,"human, plasma, oral, 10 mg",3 h
same,half-life,"human, plasma, oral, 10 mg",13.9 h
same,bound to serum proteins,[6]; apixaban,87%
same,protein-bound,[6],87%
same,Effect of apixaban on the PK of digoxin,"[2]; apixaban 20 mg once daily, digoxin 0.25 mg once daily",no effect
same,"Deaths, serious AEs, major bleeding-related AEs","Safety [3]; digoxin 0.25 mg, then digoxin 0.25 mg + apixaban 20 mg once daily","No deaths, serious AEs, or major bleeding-related AEs"
